The test system of test [1] is PC-3. Nature of the test: In vitro proliferation assay (MTT), PC-3. The format is cell-based, human. Particulars: Homo sapiens, PC-3, MTT assay; value (SD, n) where given; read-out: PC-3 Prostate (IC50 µM). The protocol: (§1) The proliferation of tumor cells can be measured using a tetrazolium salt-based assay known as the MTT (3-[4,5-Dimethylthiazol-2-yl]-2,5-diphenyltetrazolium bromide) assay. […] For the assay, the cell lines are plated onto 96 well plates at 1000 to 2500 cells/well (depending on the properties of the individual cell lines), left to attach and recover overnight. […] After 3 days, the cells are incubated with MTT dye (3-[4,5-Dimethylthiazol-2-yl]-2,5-diphenyltetrazolium bromide, Sigma # M5655, 10 mg/ml in Hank's Buffered Saline) to estimate the amount of live cells remaining vs. concentration for the test compounds. […] The MTT and culture medium is then removed from the cultures and 200 µl of DMSO is added to solubilize the dye from the cell layer. The absorbance at 570 nm is determined for each culture using a Spectramax plate reader (Molecular Devices).
(§2) IC50s were determined from the raw data from either the MTT or SRB assays.
(§3) All of the cell lines were obtained from American Type Tissue Collection, with the ATCC accession number in parentheticals. MCF-7 and MDA-MB-231 cells were grown in improved minimum essential medium (Biofluids) without phenol red, supplemented with 5 % fetal bovine serum, 0.01 mg/ml gentamicin and 3 mM L-glutamine.
In general terms: Tetrazolium dyes change colour on reduction, which living cells bring about.

Test [2] concerns MDA-MB-435. Nature of the test: In vitro proliferation assay (MTT), MDA-MB-435. The format is cell-based, human. To be noted: Homo sapiens, MDA-MB-435, MTT assay; value (SD, n) where given; read-out: MB-435 Breast (IC50 µM). As for the experimental part: as §1, §2, §3
The target in test [3] is cdk2/cyclin E (Homo sapiens, UniProt P24941). Put plainly: Cyclin-dependent kinase assay, cdk2/cyclin E. Particulars: CDK2 IC50, nM, GST-pRb substrate, 10 µM ATP.
Procedure: The insect cell (Sf9) expression is optimized for each of the CDK/cyclin pairs according to the manufacturer's protocols (Life Technologies).
The viruses are added to the cells and the culture is incubated at 27°C for the desired time. The cells are harvested by centrifugation at 3000 rpm for 10 minutes. The cells are snap frozen on dry ice and stored at - 80°C.
Cell extracts are made following a standard procedure. The cell pellet is resuspended in lysis buffer (50 mM HEPES, pH 8.0, 10 mM MgCl2, 1 mM DTT, 2.5 mM EGTA, 1 mM EDTA, 10 mM β-glycerophosphate, 1 mM sodium vanadate, 1 mM sodium fluoride, 1 x Protease inhibitor cocktail). The cells are lysed using the microfluidizer (Microfluidics) for 20 minutes. Cell debris is removed by centrifugation at 100,000 x g. The cell extracts are aliquoted in 1 ml aliquots, frozen on dry ice, and stored at -80°C.
The kinase reactions are performed following a standard procedure. The enzyme and inhibitor are diluted in kinase buffer (50 mM HEPES, pH 8.0, 10 mM MgCl2, 2.5 mM EGTA, 10 mM β-glycerophosphate, 1 mM sodium vanadate, 1 mM sodium fluoride, and 1 mM DTT) and pre-incubated for 30 minutes. The cdk2 and cdk4 enzyme activities are assayed using 500 ng of the GST-pRb substrate (see description below) in the presence of 10 µM cold ATP and 1 µCi of [γ-^33P] ATP for 30 minutes at room temperature. […] The reactions are terminated by the addition of 50 µL of 10 mM cold ATP to stop the reactions. The reactions are transferred to a pre-soaked 96-well multi-screen plate containing 30 µL of 100% TCA per well. After incubation for one hour at room temperature, the plates are washed twice with 200 µl of 20% TCA, followed by 200 µl of 10% TCA and finally with 200 µl of 5% TCA. After drying the plates at room temperature, the filter plates are placed in adapter plates (Packard) and 40 µl of Microscint-O® (Packard) is added to each well.
The target in test [4] is cdk4/cyclin D1 (Homo sapiens, UniProt P11802). Nature of the test: Cyclin-dependent kinase assay, cdk4/cyclin D1. The format is biochemical. Particulars: cyclin D1/cdk4; GST-pRb substrate, 10 µM ATP.
Test [5] deals with cdk1/cyclin B (Homo sapiens, UniProt P06493). Nature of the test: Cyclin-dependent kinase assay, cdk1/cyclin B. To be noted: CDK1 IC50, nM, Histone H1, 10 µM ATP.

Counter-ions that a name gives are not always drawn.

Sequence of cdk1/cyclin B (P06493 whole entry): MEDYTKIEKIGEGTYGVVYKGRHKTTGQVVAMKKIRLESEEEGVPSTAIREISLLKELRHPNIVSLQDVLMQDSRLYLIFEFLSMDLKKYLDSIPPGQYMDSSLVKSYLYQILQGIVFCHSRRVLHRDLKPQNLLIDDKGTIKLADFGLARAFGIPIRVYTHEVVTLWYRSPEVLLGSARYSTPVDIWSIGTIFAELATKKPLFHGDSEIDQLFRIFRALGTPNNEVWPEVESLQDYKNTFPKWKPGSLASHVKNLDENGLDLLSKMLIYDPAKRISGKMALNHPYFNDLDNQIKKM
Sequence of cdk1/cyclin B (P14635 whole entry partner): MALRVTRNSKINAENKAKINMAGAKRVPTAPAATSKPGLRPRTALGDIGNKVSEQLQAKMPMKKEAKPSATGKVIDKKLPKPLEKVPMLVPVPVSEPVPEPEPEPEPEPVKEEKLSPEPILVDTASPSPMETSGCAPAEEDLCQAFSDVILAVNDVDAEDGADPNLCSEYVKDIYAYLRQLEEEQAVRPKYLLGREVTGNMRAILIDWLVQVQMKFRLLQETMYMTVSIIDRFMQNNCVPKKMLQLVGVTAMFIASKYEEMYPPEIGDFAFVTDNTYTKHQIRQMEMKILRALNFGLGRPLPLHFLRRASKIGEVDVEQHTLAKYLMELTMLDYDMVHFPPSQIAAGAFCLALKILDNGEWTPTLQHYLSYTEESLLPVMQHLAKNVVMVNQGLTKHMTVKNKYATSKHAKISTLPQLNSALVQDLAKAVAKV
Sequence of cdk4/cyclin D1 (P11802 whole entry): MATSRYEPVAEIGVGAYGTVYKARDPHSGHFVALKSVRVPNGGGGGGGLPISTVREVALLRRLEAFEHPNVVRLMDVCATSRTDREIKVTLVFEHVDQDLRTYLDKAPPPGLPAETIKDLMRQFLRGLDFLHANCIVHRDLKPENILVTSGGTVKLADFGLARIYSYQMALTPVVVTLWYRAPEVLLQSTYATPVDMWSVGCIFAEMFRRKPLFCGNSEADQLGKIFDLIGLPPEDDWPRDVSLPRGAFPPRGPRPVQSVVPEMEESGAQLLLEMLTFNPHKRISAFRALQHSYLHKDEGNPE
Sequence of cdk4/cyclin D1 (P24385 whole entry partner): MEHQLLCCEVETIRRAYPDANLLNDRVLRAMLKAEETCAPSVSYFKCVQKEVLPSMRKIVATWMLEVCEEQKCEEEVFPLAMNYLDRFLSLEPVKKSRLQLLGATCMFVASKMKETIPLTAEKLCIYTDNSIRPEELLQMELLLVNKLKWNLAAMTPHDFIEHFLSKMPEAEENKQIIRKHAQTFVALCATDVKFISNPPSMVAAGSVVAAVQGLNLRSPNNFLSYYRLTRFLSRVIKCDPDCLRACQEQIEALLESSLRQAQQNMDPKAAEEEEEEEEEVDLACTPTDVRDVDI

With `NC1CCC(Nc2nc(NC3CCN(C(=O)C4CC4c4ccccc4)CC3)c3ncn(C4CCCC4)c3n2)CC1` (racemic) [compound 43, (±)-trans-1-{4-[2-(4-Amino-cyclohexylamino)-9-cyclopentyl-9H-purin-6-ylamino]-piperidin-1-y1}-1-(2-phenyl-cyclopropyl)-methanone dihydrochloride], the IC50 (in general, the concentration at which inhibition is half-maximal) in test [1] was 0.59 µM; in test [2] it was 0.47 µM; in test [3], 77 nM.

As to `N[C@H]1CC[C@H](Nc2nc(NC3CCN(C(=O)C(O)c4ccccc4)CC3)c3ncn(C4CCCC4)c3n2)CC1` (mixture of isomers) [compound 50, (±)-trans-1-{4-[2-(4-Amino-cyclohexylamino)-9-cyclopentyl-9H-purin-6-ylamino]-piperidin-1-yl}-2-hydroxy-2-phenyl-ethanone dihydrochloride], the IC50 in test [1] is 1.58 µM; in test [4], 0.206 µM; in test [2], 1.67 µM; in test [5] it was 43 nM; in test [3], 44 nM.

Take `CCCCC(CC)C(=O)N1CCC(Nc2nc(N[C@H]3CC[C@H](N)CC3)nc3c2ncn3C2CCCC2)CC1` (mixture of isomers) [compound 57, (±)-trans-1-{4-[2-(4-Amino-cyclohexylamino)-9-cyclopentyl-9H-purin-6-ylamino]-piperidin-1-yl}-2-ethyl-hexan-1-one dihydrochloride]: the IC50 in test [1] was 1.13 µM; in test [4], 1.3 µM; in test [2] it was 0.96 µM; in test [5], 193 nM; in test [3], 480 nM.

In the case of `CCCCC(CC)COC(=O)N1CCC(Nc2nc(N[C@H]3CC[C@H](N)CC3)nc3c2ncn3C2CCCC2)CC1` (mixture of isomers) [compound 97, (±)-trans-4-[2-(4-Amino-cyclohexylamino)-9-cyclopentyl-9H-purin-6-ylamino]-piperidine-1-carboxylic acid 2-ethyl-hexyl ester dihydrochloride], the half-inhibitory concentration (IC50) in test [1] was determined as 1.65 µM; in test [2], 1.52 µM.

As to `N[C@H]1CC[C@H](Nc2nc(NC3CCN(C(=O)NC4CC4c4ccccc4)CC3)c3ncn(C4CCCC4)c3n2)CC1` (mixture of isomers) [compound 156, (±)-trans-4-[2-(4-Amino-cyclohexylamino)-9-cyclopentyl-9H-purin-6-ylamino]-piperidine-1-carboxylic acid (2-phenyl-cyclopropyl)-amide dihydrochloride], the IC50 in test [1] was found to be 0.39 µM; in test [4], 1.62 µM; in test [2] it was 0.28 µM; in test [5] it was 75 nM; in test [3], 79 nM.

For `N[C@H]1CC[C@H](Nc2nc(NC3CCN(C(=O)c4ccccc4Br)CC3)c3ncn(C4CCCC4)c3n2)CC1` [compound 13, trans-1-{4-[2-(4-Amino-cyclohexylamino)-9-cyclopentyl-9H-purin-6-ylamino]-piperidin-1-yl}-1-(2-bromo-phenyl)-methanone], the IC50 in test [1] is 2.55 µM; in test [4], 0.373 µM; in test [2], 2.89 µM; in test [5], 197 nM; in test [3], 364 nM.

`CCCCc1ccc(C(=O)N2CCC(Nc3nc(N[C@H]4CC[C@H](N)CC4)nc4c3ncn4C3CCCC3)CC2)cc1` [compound 21, trans-1-{4-[2-(4-Amino-cyclohexylamino)-9-cyclopentyl-9H-puxin-6-ylamino]-piperidin-1-yl}-1-(4-butyl-phenyl)-methanone]: the half-maximal inhibitory concentration (IC50) was 1.45 µM in test [1], 1.43 µM in test [2] and 121 nM in test [3].

For the molecule `CCCCCCCc1ccc(C(=O)N2CCC(Nc3nc(N[C@H]4CC[C@H](N)CC4)nc4c3ncn4C3CCCC3)CC2)cc1` [compound 24, trans-1-{4-[2-(4-Amino-cyclohexylamino)-9-cyclopentyl-9H-purin-6-ylamino]-piperidin-1-yl}-1-(4-heptyl-phenyl)-methanone], the half-maximal inhibitory concentration (IC50) in test [1] worked out at 3.97 µM; in test [2] it was 2.18 µM.

On to `N[C@H]1CC[C@H](Nc2nc(NC3CCN(C(=O)c4ccc([N+](=O)[O-])cc4)CC3)c3ncn(C4CCCC4)c3n2)CC1` [compound 27, trans-1-{4-[2-(4-Amino-cyclohexylamino)-9-cyclopentyl-9H-purin-6-ylamino]-piperidin-1-yl}-1-(4-nitro-phenyl)-methanone], for which the IC50 was 2 µM in test [1] and 1.73 µM in test [2].

Consider `CC(C)=CC(=O)N1CCC(Nc2nc(N[C@H]3CC[C@H](N)CC3)nc3c2ncn3C2CCCC2)CC1` [compound 30, trans 1-{4-[2-(4-Amino-cyclohexylamino)-9-cyclopentyl-9#H!-purin-6-ylamino]-piperidin-1-yl}-3-methyl-but-2-en-1-one dihydrochloride], for which the IC50 in test [1] is 0.8 µM; in test [2] it was 0.75 µM; in test [3], 77 nM.

As for `N[C@H]1CC[C@H](Nc2nc(NC3CCN(C(=O)/C=C/c4ccccc4)CC3)c3ncn(C4CCCC4)c3n2)CC1` [compound 62, trans-(E)-1-{4-[2-(4-Amino-cyclohexylamino)-9-cyclopentyl-9H-purin-6-ylamino]-piperidin-1-yl}-3-phenyl-propenone dihydrochloride], the IC50 in test [3] came to 66 nM.

Take `N[C@H]1CC[C@H](Nc2nc(NC3CCN(C(=O)OCc4ccccc4)CC3)c3ncn(C4CCCC4)c3n2)CC1` [compound 90, trans-4-[2-(4-Amino-cyclohexylamino)-9-cyclopentyl-9H-purin-6-ylamino]-piperidine-1-carboxylic acid benzyl ester dihydrochloride]: the IC50 worked out at 0.58 µM in test [1] and 0.38 µM in test [2].

On to `CC(C)COC(=O)N1CCC(Nc2nc(N[C@H]3CC[C@H](N)CC3)nc3c2ncn3C2CCCC2)CC1` [compound 91, trans-4-[2-(4-Amino-cyclohexylamino)-9-cyclopentyl-9H-purin-6-ylamino]-piperidine-1-carboxylic acid isobutyl ester dihydrochloride], for which the figures for the IC50 in test [1] and in test [2] were 0.37 µM and 0.36 µM, respectively.

As to `CCCOC(=O)N1CCC(Nc2nc(N[C@H]3CC[C@H](N)CC3)nc3c2ncn3C2CCCC2)CC1` [compound 96, trans-4-[2-(4-Amino-cyclohexylamino)-9-cyclopentyl-9H-purin-6-ylamino]-piperidine-1-carboxylic acid propyl ester dihydrochloride], the IC50 in test [1] and in test [2] was 0.35 µM in each case.

Regarding `CCCCCCOC(=O)N1CCC(Nc2nc(N[C@H]3CC[C@H](N)CC3)nc3c2ncn3C2CCCC2)CC1` [compound 98, trans-4-[2-(4-Amino-cyclohexylamino)-9-cyclopentyl-9H-purin-6-ylamino]-piperidine-1-carboxylic acid hexyl ester dihydrochloride], the half-maximal inhibitory concentration (IC50) in test [1] stood at 0.82 µM; in test [2], 0.66 µM.

As for `COc1cc(COC(=O)N2CCC(Nc3nc(N[C@H]4CC[C@H](N)CC4)nc4c3ncn4C3CCCC3)CC2)c([N+](=O)[O-])cc1OC` [compound 101, trans-4-[2-(4-Amino-cyclohexylamino)-9-cyclopentyl-9H-purin-6-ylamino]-piperidine-1-carboxylic acid 4,5-dimethoxy-2-nitro-benzyl ester dihydrochloride], the IC50 was determined as 0.27 µM in test [1], 0.24 µM in test [2], 31 nM in test [5] and 80 nM in test [3].

`CC(C)(C)COC(=O)N1CCC(Nc2nc(N[C@H]3CC[C@H](N)CC3)nc3c2ncn3C2CCCC2)CC1` [compound 103, trans-4-[2-(4-Amino-cyclohexylamino)-9-cyclopentyl-9H-purin-6-ylamino]-piperidine-1-carboxylic acid 2,2-dimethyl-propyl ester dihydrochloride]: the IC50 worked out at 0.44 µM in test [1] and 0.51 µM in test [2].

As for `N[C@H]1CC[C@H](Nc2nc(NC3CCN(S(=O)(=O)c4cccs4)CC3)c3ncn(C4CCCC4)c3n2)CC1` [compound 128, trans-N^2&-(4-Amino-cyclohexyl)-9-cyclopentyl-N^6-[1-(thiophene-2-sulfonyl)-piperidin-4-yl]-9H-purine-2,6-diamine dihydrochloride], the IC50 in test [1] was found to be 0.57 µM; in test [2], 0.49 µM; in test [3], 7 nM.

For `Cc1cccc(NC(=O)N2CCC(Nc3nc(N[C@H]4CC[C@H](N)CC4)nc4c3ncn4C3CCCC3)CC2)c1` [compound 210, trans-4-[2-(4-Amino-cyclohexylamino)-9-cyclopentyl-9H-purin-6-ylamino]-piperidine-1-carboxylic acid (3-methyl-phenyl)-amide dihydrochloride], the figures for the concentration for half-maximal inhibition (IC50) in test [4], in test [5] and in test [3] were 0.074 µM, 20 nM and 28 nM, respectively.

For the origin of these results see patent publication EP1377579B1 (Aventis Pharmaceuticals Inc., priority 2000, dated 2002).
